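Method: 48-hour compound exposure of cells in 96-well plates, five concentrations, linear interpolation of endpoints. TGI: total growth inhibition.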
Tests used:
Test in all cases: NCI tumour cell line growth inhibition, 48 h
TK-10 renal = tested on: TK-10 renal
SW-620 colon = tested on: SW-620 colon
HT29 colon = tested on: HT29 colon
COLO 205 colon = tested on: COLO 205 colon
SK-MEL-2 melanoma = tested on: SK-MEL-2 melanoma
MDA-MB-231 breast = tested on: MDA-MB-231 breast
OVCAR-5 ovarian = tested on: OVCAR-5 ovarian
RPMI-8226 leukemia = tested on: RPMI-8226 leukemia
SR leukemia = tested on: SR leukemia
NCI-H226 lung = tested on: NCI-H226 lung
T-47D breast = tested on: T-47D breast
SNB-19 CNS = tested on: SNB-19 CNS
MALME-3M melanoma = tested on: MALME-3M melanoma
UACC-257 melanoma = tested on: UACC-257 melanoma
SF-268 CNS = tested on: SF-268 CNS
UACC-62 melanoma = tested on: UACC-62 melanoma
M14 melanoma = tested on: M14 melanoma
K-562 leukemia = tested on: K-562 leukemia
SN12C renal = tested on: SN12C renal
OVCAR-8 ovarian = tested on: OVCAR-8 ovarian
IGROV1 ovarian = tested on: IGROV1 ovarian
KM12 colon = tested on: KM12 colon
HCT-15 colon = tested on: HCT-15 colon
786-0 renal = tested on: 786-0 renal
HOP-92 NSCLC = tested on: HOP-92 NSCLC
MOLT-4 leukemia = tested on: MOLT-4 leukemia
DU-145 prostate = tested on: DU-145 prostate
UO-31 renal = tested on: UO-31 renal
HCC-2998 colon = tested on: HCC-2998 colon
SK-MEL-28 melanoma = tested on: SK-MEL-28 melanoma
SF-295 CNS = tested on: SF-295 CNS
SF-539 CNS = tested on: SF-539 CNS
MCF7 breast = tested on: MCF7 breast
CCRF-CEM leukemia = tested on: CCRF-CEM leukemia
OVCAR-4 ovarian = tested on: OVCAR-4 ovarian
NCI-H522 lung = tested on: NCI-H522 lung
ACHN renal = tested on: ACHN renal
A549 NSCLC = tested on: A549 NSCLC
SK-MEL-5 melanoma = tested on: SK-MEL-5 melanoma
HCT-116 colon = tested on: HCT-116 colon
U251 CNS = tested on: U251 CNS
NCI/ADR-RES ovarian = tested on: NCI/ADR-RES ovarian
HL-60(TB) leukemia = tested on: HL-60(TB) leukemia
CAKI-1 renal = tested on: CAKI-1 renal
OVCAR-3 ovarian = tested on: OVCAR-3 ovarian
MDA-MB-435 = tested on: MDA-MB-435
A498 renal = tested on: A498 renal
NCI-H460 lung = tested on: NCI-H460 lung
RXF 393 renal = tested on: RXF 393 renal
SNB-75 CNS = tested on: SNB-75 CNS
MDA-N = tested on: MDA-N
NCI-H23 lung = tested on: NCI-H23 lung
PC-3 prostate = tested on: PC-3 prostate
BT-549 breast = tested on: BT-549 breast
SK-OV-3 ovarian = tested on: SK-OV-3 ovarian
HOP-62 NSCLC = tested on: HOP-62 NSCLC
EKVX NSCLC = tested on: EKVX NSCLC
LOX IMVI melanoma = tested on: LOX IMVI melanoma

Measured: TGI

CCN(CC)CCCNc1nc2ccccc2[n+]([O-])n1
not listed: SK-OV-3 ovarian | HOP-62 NSCLC | EKVX NSCLC | LOX IMVI melanoma
> 100 µM: all other assays above

C=C(C(=O)OC)[C@H]1CC/C(C)=C/CC[C@@](C)(O)C=CC[C@@]2(C)O[C@@H]2C1
41 µM: SK-MEL-28 melanoma
20.1 µM: SK-MEL-5 melanoma
50.2 µM: CAKI-1 renal
70.2 µM: HOP-92 NSCLC
41.5 µM: RPMI-8226 leukemia
46.1 µM: MDA-MB-435
52.3 µM: UO-31 renal
31.9 µM: MOLT-4 leukemia
33.8 µM: SR leukemia
56.9 µM: SF-539 CNS
78.6 µM: NCI/ADR-RES ovarian
31 µM: COLO 205 colon
27 µM: OVCAR-8 ovarian
34.8 µM: 786-0 renal
61 µM: NCI-H23 lung
42.4 µM: OVCAR-3 ovarian
87.2 µM: A498 renal
36.6 µM: HCT-116 colon
28.5 µM: HT29 colon
73.6 µM: HCT-15 colon
84.1 µM: DU-145 prostate
not listed: MALME-3M melanoma | K-562 leukemia | CCRF-CEM leukemia | NCI-H522 lung | HL-60(TB) leukemia | LOX IMVI melanoma
> 100 µM: all other assays above

O=C1/C(=C/c2ccc3c(c2)CCC3)Cc2cc3c(cc21)CCC3
97.6 µM: HOP-92 NSCLC
not listed: 786-0 renal | CAKI-1 renal
> 100 µM: all other assays above

— PubChem BioAssay (NCI)
